Assay results: patent US20240301408A1, “MICRORNA 195 COMPOSITIONS AND METHODS FOR TREATING COGNITIVE IMPAIRMENT” (UNITED STATES GOVERNMENT AS REPRESENTED BY THE DEPARTMENT …, priority 2021, published 2024)

Tests used:
[1] = system: ApoE4+/+ FAD mice; assay: novel object recognition (NOR) after hippocampal AAV2 injection, ApoE KI mice with 5xFAD background (EFAD); type: in vivo, mouse; conditions: male ApoE4+/+ FAD mice
Source text: (§1) Animal models. Human ApoE4^+/+ or ApoE3^+/+ knock-in (KI) mouse models without (Grootendorst J et al., Behavioural brain research 2005, Rodriguez G A et al., Learn Mem 2013, and Wang C et al., Neurobiology of disease 2005) or with 5×FAD background (Balu D et al., Neurosci Lett 2019, and Tai L M et al., J Lipid Res 2017) were genotyped (Zhong L et al., Mol Neurodegener 2016). Sex as a biological variable was taken into considerations with inclusion of both male and female mice in the experiments.
(§2) Stereotaxic injection and behavior studies. Eight to nine weeks old male and female ApoE3^+/+ and ApoE4^+/+ KI mice without 5×FAD background (N=19-23/group), or with 5×FAD background (N=15-17/group) were placed in the stereotaxic apparatus with AAV2 or scramble virus administered into the dorsal CA1 regions of bilateral hippocampal brain regions using pressure injection (Labonte B et al., Nat Med 2017, and Passini M A et al., The Journal of neuroscience 2006). Injection volumes (0.5-2.0 μl) were delivered over 10 min to avoid tissue damage. Six to nine months after viral delivery, mice were tested with the NOR task (Zhu L et al., Proc Natl Acad Sci USA 2015, Elder G A et al., J Neurotrauma 2012, and Howlett D R et al., Brain Res 2004). Mice were randomized for genotype and sex, and blinded throughout the behavior data collection and analysis, surgical manipulations, and sample collection.

[2] = system: ApoE4+/+ or ApoE3+/+ knock-in (KI) mice; assay: novel object recognition (NOR) after hippocampal AAV2 injection, ApoE KI mice; type: in vivo, mouse
Source text: as §1, §2

[3] = system: dynamin 1 (dyn1); assay: dynamin 1 protein levels in cultured neurons after AAV2 miRNA over-expression; type: cell-based, mouse; conditions: neurons over-expressing miRNA; N=4/group
Protocol: Mouse Neuronal and human iPSC culture. Primary cortical neurons were cultured (Zhu L et al., Proc Natl Acad Sci USA 2015, and Zhu L et al., J Biol Chem 2013) before being fixed and stained for confocal microscopy analysis (Zeiss LSM) (Berg I et al., Nat Protoc 2010). In some conditions, bovine serum albumin (BSA) or receptor-associated protein (RAP) was included in the cultured media (N=3/group). Alternatively, cultured neurons were transfected with adeno-associated virus 2 (AAV2)-containing miR-195-5p or miR-374 or scramble controls for 5 days before subjected to analysis. […]
Brain and neuronal sample preparation and biochemical analysis. […] Levels of Aβ42, Aβ40, pTau, Tau and ApoE were determined using high-sensitive ELISA kits. […]
Statistical analysis. […] Levels of miR-195-5p and miR-374 were normalized to U6 and RNU6B (internal controls) while synj1 mRNA normalized to GAPDH and 18s, and then expressed as Log2fold of changes when compared to controls. Levels of synj1, dyn1, pTau, Tau, and holoAPP were normalized to β-actin levels and expressed as a percentage of the control. Absolute Aβ42, Aβ40, pTau, Tau, and ApoE concentrations were quantitatively determined by ELISA and expressed as a percentage of the control. […] Pearson correlation coefficients were calculated to determine the linear relationship between the two variables. […]

[4] = system: BV2 cells; assay: LPS-induced gene expression (pdcd4, smad7, il10a) in BV2 microglia with miR-195-5p over-expression; type: cell-based
Protocol: For example, LPS (at 0.2 μg/ml) treatment for overnight in BV2 cells leads to increased expression of pdcd4 and smad7 (FIG. 13A) and reduced expression of il10ra (FIG. 13C). […] Over-expression of miR-195-5p also attenuates LPS-induced pro-inflammatory cytokine release (IL-6 and TNFα; FIG. 13B). […] For these experiments, purified exosomes were derived from human APOE3/3 and 4/4 iPSC-derived astrocytes w/wo miR-195 over-expression detected by an exosome marker, ALIX. Fluorescence labeled exosomes were taken up by IBA1+ microglia cells.
Over-expression of miR-195-5p in microglia inhibits LPS-induced proinflammatory responses and augments anti-inflammatory responses. […] However, over-expression of miR-195-5p reduces expression levels of pdcd4 and smad7 and increases il10a expression in the presence of LPS. Over-expression of miR-195-5p also attenuates LPS-induced pro-inflammatory cytokine release (IL-6 and TNFα; FIG. 17B).

For “UAGCAGCACAGAAAUAUUGGC (chemistry not given here) [miR-195-5p, over-expressed via AAV2-containing miR-195-5p from ABM Inc]”, the NOR preference index ([1]; scramble controls 37.8%) was 63.1%, the NOR discrimination index ([1]; scramble controls -0.245) was 0.262 and the “NOR, scramble versus miR-195-5p over-expressing animals” value ([2]; ApoE3+/+ KI mice) was “no statistically significant differences”. For the same sequence, the NOR preference index ([2]; ApoE4+/+ KI mice, viral delivery to bilateral hippocampi, scramble controls 42.9%) was 61.5%, the NOR discrimination index ([2]; ApoE4+/+ KI mice, scramble controls −0.144) was 0.231 and the dyn protein levels [3] was 97.7 % of controls. For the same sequence, the “expression levels of pdcd4 and smad7” value ([4]; LPS overnight) was “dramatically reduces” and the il10a expression ([4]; in the presence of LPS) was “increases”.
